Source: US11008572B2, “Methods and compositions for modulating splicing” (SKYHAWK THERAPEUTICS, INC., priority 2017, dated 2021)

Test system: A673 cells
Test: Dose-response cell proliferation, crystal violet assay, 72 h
Assay type: cell-based
Conditions: ratio of IC50 in NHDF cells to IC50 in A673 cells
Description: Small molecule splicing modulators were tested in a dose-response assay using A673 cells and NHDF cells.
A673 cells or NHDF cells were first plated in 96-well plastic tissue culture plates (10,000 cells per well). The cells were treated with vehicle alone (DMSO), or increasing concentrations of SMSM compounds for 72 h. Following treatment, cell proliferation was determined using a crystal violet assay. The relative cell proliferation at each concentration was determined.

In the case of `CN(c1ccc(-c2ccc(-c3cn[nH]c3)cc2O)nn1)[C@H]1C[C@]2(C)CC[C@](C)(C1)N2` [compound 151, 2-(6-(((1R,3s,5S)-1,5-dimethyl-8-azabicyclo[3.2.1]octan-3-yl)(methyl)amino)pyridazin-3-yl)-5-(1H-pyrazol-4-yl)phenol], the “Ratio NHDF/A673 IC50” value is reported as >350.
